Test results published in ChEMBL document CHEMBL1201862, “PubChem BioAssay data set” (2004).
Calls of active or inactive are those of the source.

Columns and labels:
[1] = target: T1, Neuropeptide Y receptor type 2 (Homo sapiens, UniProt P49146); assay: Fluorescence-based cell-based high-throughput dose response assay for agonists of NPY-Y2. [Related pubchem assays: 1703 (Screening assay (CNGC inhibitors).), 1359 (Screening assay (NPY-Y2 potentiators or agonists).), 1304 (Screening assay (NPY-Y1 potentiators or agonists).), 1710 (Screening assay (NPY-Y2 agonists).), 1791 (Summary AID.)]; format: functional
INS1 = assay: beta cell apoptosis inhibitors, cytokine rescue, dose response, luminescence, retest (AID 449756); format: functional, cell-based; settings: Rattus norvegicus;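 note: cell death triggered by IL-1 beta plus TNF-alpha plus IFN-gamma mixture; protective hits raise ATP signal compared with cytokine alone wells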
[2] = system: Streptococcus sp. 'group A'; assay: growth inhibition of control SK(-) GAS strain, dose response, counter-screen for streptokinase expression inhibitor project, luminescence, kanamycin, BacTiterGlo, confirmation (AID 1900); format: functional, organism-based
[3] = target: T2, DNA repair protein RAD52 homolog (Homo sapiens, UniProt P43351); format: functional, biochemical
T2 sequence (P43351 whole entry): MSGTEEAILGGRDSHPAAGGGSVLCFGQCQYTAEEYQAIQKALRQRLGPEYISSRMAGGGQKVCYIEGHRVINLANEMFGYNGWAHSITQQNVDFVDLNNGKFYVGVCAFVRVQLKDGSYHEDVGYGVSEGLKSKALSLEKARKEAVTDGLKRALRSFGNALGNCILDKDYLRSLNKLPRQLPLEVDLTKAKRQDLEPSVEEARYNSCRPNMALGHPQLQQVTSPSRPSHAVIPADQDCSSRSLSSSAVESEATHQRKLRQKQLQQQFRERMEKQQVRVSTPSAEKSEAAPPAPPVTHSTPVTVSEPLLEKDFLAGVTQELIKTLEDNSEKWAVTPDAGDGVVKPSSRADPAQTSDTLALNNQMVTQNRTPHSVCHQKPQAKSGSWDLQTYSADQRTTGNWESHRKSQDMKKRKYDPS

cells [4] = format: functional, cell-based
Streptokinase A = target: T3, Streptokinase A (Streptococcus pyogenes serotype M1, UniProt P10520); assay: S. pyogenes streptokinase expression inhibitors, potency, dose response, plasminogen activation absorbance, OD405 (AID 1914); format: functional, Streptococcus pyogenes M1 GAS;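 note: secreted streptokinase activity via plasminogen activation per viability signal from cell pellet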
T3 sequence (P10520 whole entry): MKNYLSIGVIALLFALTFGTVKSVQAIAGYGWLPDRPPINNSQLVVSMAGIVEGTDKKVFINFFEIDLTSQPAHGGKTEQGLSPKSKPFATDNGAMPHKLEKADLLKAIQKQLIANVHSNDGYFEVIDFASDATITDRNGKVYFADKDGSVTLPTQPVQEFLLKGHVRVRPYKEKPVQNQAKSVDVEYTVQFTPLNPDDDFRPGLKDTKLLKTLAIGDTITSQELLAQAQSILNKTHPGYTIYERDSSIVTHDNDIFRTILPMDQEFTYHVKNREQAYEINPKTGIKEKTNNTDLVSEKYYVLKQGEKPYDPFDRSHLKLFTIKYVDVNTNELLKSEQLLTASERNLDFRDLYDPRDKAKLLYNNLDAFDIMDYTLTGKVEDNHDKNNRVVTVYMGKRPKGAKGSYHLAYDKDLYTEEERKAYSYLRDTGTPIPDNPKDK

HEK293 [5] = assay: Fluorescence-based counterscreen for potentiators or agonists of NPY-Y2: cell-based high-throughput dose response assay to identify inhibitors of cyclic nucleotide gated ion channel (CNGC) activity. In this assay, the parental HEK293 cell line transfected with a cyclic-nucleotide gated ion channel (CNGC)-based cAMP sensor is used to measure inhibition of isoproterenol-induced CNGC activity by test compound.; format: functional; settings: Homo sapiens
cells [6] = format: functional, cell-based; remark: listed apart in the source
Streptococcus = assay: Group A Streptococcus viability loss, dose response, counter-screen for streptokinase expression inhibitor project, luminescence, BacTiterGlo (AID 1915); format: functional, organism-based;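 note: potency for reduction of bacterial viability or growth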
BJ = assay: cytotoxicity toward Ras-transformed BJeLR fibroblasts, dose response, cell-based, alamar blue fluorescence, cherrypicked samples (AID 2631); format: functional; settings: Homo sapiens;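 note: confirmatory dose-response assay in RAS-dependent BJ fibroblasts engineered with TERT, LT and ST, with cytotoxicity read by fluorescence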
[7] = target: T4, Neuropeptide Y receptor type 1 (Homo sapiens, UniProt P25929); assay: Fluorescence-based counterscreen for agonists of NPY-Y2: cell-based high-throughput dose response assay for agonists of NPY-Y1.; format: functional
[8] = target: T5, Alkaline phosphatase, tissue-nonspecific isozyme (Homo sapiens, UniProt P05186)
T5 sequence (P05186 whole entry): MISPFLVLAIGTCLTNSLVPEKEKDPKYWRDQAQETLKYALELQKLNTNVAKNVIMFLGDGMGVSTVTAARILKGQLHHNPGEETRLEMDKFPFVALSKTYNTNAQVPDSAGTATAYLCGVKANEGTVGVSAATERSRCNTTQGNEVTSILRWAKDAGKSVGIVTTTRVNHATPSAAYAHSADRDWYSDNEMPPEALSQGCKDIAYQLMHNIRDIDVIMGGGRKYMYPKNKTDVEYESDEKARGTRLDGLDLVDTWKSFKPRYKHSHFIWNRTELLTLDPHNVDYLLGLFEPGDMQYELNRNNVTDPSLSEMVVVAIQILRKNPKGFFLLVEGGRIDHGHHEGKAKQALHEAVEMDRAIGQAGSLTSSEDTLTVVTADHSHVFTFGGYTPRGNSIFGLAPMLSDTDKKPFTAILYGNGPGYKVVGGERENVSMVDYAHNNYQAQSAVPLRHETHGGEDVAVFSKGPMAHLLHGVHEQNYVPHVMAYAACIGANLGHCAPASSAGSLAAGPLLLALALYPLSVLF

[9] = target: G2/mitotic-specific cyclin-B1 (Homo sapiens, UniProt P14635); assay: Counterscreen assay for inhibitors of Wee1 degradation: dose response cell-based assay to identify inhibitors of cyclin B degradation. [Related pubchem assays: 1410, 1321 ]; format: functional
Wee1-like protein kinase = Wee1-like protein kinase (Homo sapiens, UniProt P30291); assay: Dose Response Cell-based Assay for Inhibitors of Wee1 Degradation. [Related pubchem assays: 1410, 1321 ]; format: functional
[10] = A549 cell cytotoxicity, dose response, cytotoxicity control, plate reader, cherry-pick, antagonist series (AID 743412); format: functional, cell-based
HEK293 [11] = assay: PMA/Ionomycin induced NF-kB luciferase assay in 293- NF-kB-Luc stable cells. [Related pubchem assays: 1299, 1270, 1295, 1375, 1287, 1281, 1293, 1291, 1289, 1280, 465, 1364, 1282, 1372, 1365, 1370, 1367, 1366, 1269, 1373, 1292, 1290, 1302, 1371, 1283, 1271, 1294, 1374, 1368, 1369 ]; format: functional, cell-based; settings: Homo sapiens
HEK293 [12] = assay: Cytotoxicity assay in HEK293 cells. [Related pubchem assays (depositor defined):AID1266, AID1269, AID1270, AID1271, AID1280, AID1281, AID1282, AID1283, AID1287, AID1289, AID1290, AID1291, AID1292, AID1293, AID1294, AID1295, AID1299, AID1302, AID1364, AID1365, AID1366, AID1367, AID1369, AID1370, AID1371, AID1372, AID1373, AID1374, AID1375, AID1384 …; format: functional, cell-based; settings: Homo sapiens
[13] = target: Photoreceptor-specific nuclear receptor (Homo sapiens, UniProt Q9Y5X4); format: functional, cell-based;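 note: CHO-S cells with Gal4-NCOR and VP16-NR2E3 two-hybrid luciferase reporter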
HEK293 [14] = assay: TNF Induced NF-kB Luciferase in 293-NF-kB-Luc Stable Cells. [Related pubchem assays: 1266, 1299, 1269, 1373, 1292, 1290, 1302, 1371, 1283, 1270, 1295, 1271, 1375, 1294, 1374, 1281, 1293, 1291, 1289, 1280, 465, 1368, 1364, 1282, 1372, 1365, 1369, 1370, 1367, 1366 ]; format: functional, cell-based; settings: Homo sapiens
[15] = LGR2 antagonists, dose response, cell-based, HEK293, CRE-luciferase reporter, cherry pick, set 2 (AID 743343); format: functional;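 note: transfected cells were stimulated with diluted bursicon conditioned medium after compound addition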
[16] = HepG2 cell cytotoxicity, dose response, cytotoxicity control, plate reader, cherry-pick, antagonist series (AID 743416); format: functional, cell-based
[17] = MC4R antagonists, dose response, counter-screen for LGR2 antagonist project, cell-based, plate reader, cherry pick (AID 743444); format: functional;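 note: transfected HEK 293 cells stimulated with alpha-MSH peptide; potency of inhibitors of the alpha-MSH evoked signal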
[18] = target: Luciferin 4-monooxygenase (Photinus pyralis, UniProt P08659); assay: In vitro luciferase assay using purified luciferase. [Related pubchem assays: 1299, 1270, 1295, 1375, 1287, 1281, 1293, 1291, 1289, 1280, 465, 1364, 1282, 1372, 1365, 1370, 1367, 1366, 1266, 1373, 1292, 1290, 1302, 1371, 1283, 1271, 1294, 1374, 1368, 1369 ]
[19] = HEK293 cell cytotoxicity, dose response, cytotoxicity control, plate reader, cherry-picked samples (AID 743446); format: functional, cell-based
[20] = target: Acyl-homoserine lactone acylase PvdQ (Pseudomonas aeruginosa (strain LESB58), UniProt Q9I194); assay: P. aeruginosa PvdQ acylase inhibitors, dose response, biochemical, fluorescence, plate reader and imaging, cherry-picks (AID 493231)
[21] = cytotoxicity toward NIH3T3 fibroblasts, dose response, counter-screen, cell-based, ATP luminescence, mouse fibroblasts (AID 2010); format: functional;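 note: cells exposed to compound for about 90 hours before reading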
cells [22] = format: functional
[23] = target: Transitional endoplasmic reticulum ATPase (Homo sapiens, UniProt P55072, C522A); assay: C522A mutant p97 ATPase inhibitors, dose response, counter-screen for p97 inhibitor project, biochemical, luminescence (AID 1544)
[24] = target: Heat shock protein HSP 90-alpha (Homo sapiens, UniProt P07900); format: functional, organism-based
[25] = target: Mitochondrial peptide methionine sulfoxide reductase (Bos taurus, UniProt P54149); assay: Absorbance-based biochemical high throughput dose response assay for activators of Methionine sulfoxide reductase A (MsrA).; format: functional
[26] = target: Transitional endoplasmic reticulum ATPase (Homo sapiens, UniProt P55072); assay: p97 ATPase inhibitors, dose response, biochemical (AID 1534)
[27] = inhibitors of intracellular T. cruzi replication, confirmation, NIH3T3 host cells, beta-gal luminescence (AID 2044); format: functional, cell-based;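 note: intracellular parasites grown in NIH/3T3 mouse fibroblasts as host cells; luminescent beta-galactosidase reporter signal from transgenic T. cruzi replicating inside host cells; inhibitors lower the luminescence signal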
HEK293 [28] = assay: Fluorescence-based counterscreen for potentiators or agonists of NPY-Y1: cell-based high-throughput dose response assay for inhibitors of cyclic nucleotide gated ion channel (CNGC) activity. In this assay, the parental HEK293 cell line transfected with a cyclic-nucleotide gated ion channel (CNGC)-based cAMP sensor is used to measure inhibition of isoproterenol-induced CNGC …; format: functional; settings: Homo sapiens
[29] = target: T4, Neuropeptide Y receptor type 1; assay: Fluorescence-based dose response cell-based high-throughput screening assay for agonists of NPY-Y1. [Related pubchem assays: 1697 (Screening assay (NPY-Y1 agonists).), 1359 (Screening assay (NPY-Y2 potentiators or agonists).), 1304 (Screening assay (NPY-Y1 potentiators or agonists).), 1704 (Screening assay (CNGC inhibitors).), 1791 (Summary AID.)]; format: functional
[30] = target: T1, Neuropeptide Y receptor type 2; assay: Fluorescence-based counterscreen for agonists of NPY-Y1: cell-based high-throughput dose response assay for agonists of NPY-Y2.; format: functional

T4 sequence (P25929 whole entry): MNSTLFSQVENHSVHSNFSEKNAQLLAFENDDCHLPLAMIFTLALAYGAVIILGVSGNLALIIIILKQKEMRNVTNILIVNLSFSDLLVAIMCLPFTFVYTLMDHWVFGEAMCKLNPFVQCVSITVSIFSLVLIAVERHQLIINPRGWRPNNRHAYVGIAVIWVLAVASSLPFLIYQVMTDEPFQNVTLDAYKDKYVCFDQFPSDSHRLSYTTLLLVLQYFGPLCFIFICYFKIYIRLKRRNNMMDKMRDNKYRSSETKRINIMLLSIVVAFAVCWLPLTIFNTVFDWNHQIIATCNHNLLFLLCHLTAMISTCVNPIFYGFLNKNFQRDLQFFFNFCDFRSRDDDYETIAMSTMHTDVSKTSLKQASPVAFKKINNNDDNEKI
T1 sequence (P49146 whole entry): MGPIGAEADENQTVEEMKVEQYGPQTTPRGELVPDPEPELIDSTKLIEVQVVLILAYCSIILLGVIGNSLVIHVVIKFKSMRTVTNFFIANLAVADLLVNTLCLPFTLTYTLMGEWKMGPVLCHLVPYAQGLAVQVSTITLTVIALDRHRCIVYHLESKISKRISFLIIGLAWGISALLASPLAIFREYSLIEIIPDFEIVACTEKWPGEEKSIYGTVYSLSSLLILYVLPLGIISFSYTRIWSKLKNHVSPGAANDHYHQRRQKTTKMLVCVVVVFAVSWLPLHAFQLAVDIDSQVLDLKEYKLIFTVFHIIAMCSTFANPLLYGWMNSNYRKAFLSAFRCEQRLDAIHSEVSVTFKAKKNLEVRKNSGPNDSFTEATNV
Mitochondrial peptide methionine sulfoxide reductase, sequence (P54149 whole entry): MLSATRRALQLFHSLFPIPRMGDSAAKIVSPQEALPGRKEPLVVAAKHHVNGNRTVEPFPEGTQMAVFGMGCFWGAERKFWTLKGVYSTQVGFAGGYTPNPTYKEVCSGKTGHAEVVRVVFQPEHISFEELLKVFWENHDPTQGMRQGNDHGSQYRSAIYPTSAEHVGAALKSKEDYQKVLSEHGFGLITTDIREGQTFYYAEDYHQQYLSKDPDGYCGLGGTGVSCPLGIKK
Acyl-homoserine lactone acylase PvdQ, sequence (Q9I194 24-193 limits assumed): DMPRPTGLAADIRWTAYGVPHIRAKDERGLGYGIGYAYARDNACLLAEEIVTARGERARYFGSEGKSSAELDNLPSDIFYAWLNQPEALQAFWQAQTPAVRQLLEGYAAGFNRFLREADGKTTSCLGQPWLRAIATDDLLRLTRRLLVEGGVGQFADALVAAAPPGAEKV
Acyl-homoserine lactone acylase PvdQ, sequence (Q9I194 217-762 limits assumed): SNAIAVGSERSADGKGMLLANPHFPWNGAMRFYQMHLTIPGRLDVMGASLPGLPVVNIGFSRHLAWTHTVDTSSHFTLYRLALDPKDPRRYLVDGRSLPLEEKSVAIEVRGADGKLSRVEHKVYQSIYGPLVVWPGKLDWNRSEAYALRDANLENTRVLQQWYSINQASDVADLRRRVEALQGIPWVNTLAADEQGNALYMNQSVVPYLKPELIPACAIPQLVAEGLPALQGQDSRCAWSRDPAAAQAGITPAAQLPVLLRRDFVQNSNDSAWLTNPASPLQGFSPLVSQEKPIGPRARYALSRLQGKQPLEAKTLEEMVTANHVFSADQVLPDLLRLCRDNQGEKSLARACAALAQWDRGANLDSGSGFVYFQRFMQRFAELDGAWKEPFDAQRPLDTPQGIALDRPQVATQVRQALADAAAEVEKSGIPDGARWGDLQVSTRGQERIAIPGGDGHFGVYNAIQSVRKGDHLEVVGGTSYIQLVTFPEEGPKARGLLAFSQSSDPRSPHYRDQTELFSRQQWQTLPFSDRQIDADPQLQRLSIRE
Wee1-like protein kinase, sequence (P30291 whole entry): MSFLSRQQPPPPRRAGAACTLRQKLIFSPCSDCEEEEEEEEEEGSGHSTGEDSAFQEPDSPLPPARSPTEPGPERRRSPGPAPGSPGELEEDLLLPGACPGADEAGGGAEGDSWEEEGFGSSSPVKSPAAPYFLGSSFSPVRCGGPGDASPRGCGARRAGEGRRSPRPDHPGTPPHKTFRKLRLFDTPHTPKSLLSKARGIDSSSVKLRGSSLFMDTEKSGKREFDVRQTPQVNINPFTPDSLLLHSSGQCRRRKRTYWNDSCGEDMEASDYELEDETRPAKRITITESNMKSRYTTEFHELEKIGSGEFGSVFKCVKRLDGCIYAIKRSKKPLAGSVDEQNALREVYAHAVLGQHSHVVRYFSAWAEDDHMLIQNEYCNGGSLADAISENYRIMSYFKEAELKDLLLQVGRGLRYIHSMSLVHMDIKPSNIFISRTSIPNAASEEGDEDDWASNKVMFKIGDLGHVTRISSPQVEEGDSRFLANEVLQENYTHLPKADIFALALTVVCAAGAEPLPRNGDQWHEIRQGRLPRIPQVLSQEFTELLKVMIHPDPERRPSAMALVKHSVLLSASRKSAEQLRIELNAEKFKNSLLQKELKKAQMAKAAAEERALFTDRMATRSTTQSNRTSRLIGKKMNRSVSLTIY
Transitional endoplasmic reticulum ATPase (Homo sapiens, UniProt P55072, C522A), sequence (P55072 2-806 C522A limits assumed): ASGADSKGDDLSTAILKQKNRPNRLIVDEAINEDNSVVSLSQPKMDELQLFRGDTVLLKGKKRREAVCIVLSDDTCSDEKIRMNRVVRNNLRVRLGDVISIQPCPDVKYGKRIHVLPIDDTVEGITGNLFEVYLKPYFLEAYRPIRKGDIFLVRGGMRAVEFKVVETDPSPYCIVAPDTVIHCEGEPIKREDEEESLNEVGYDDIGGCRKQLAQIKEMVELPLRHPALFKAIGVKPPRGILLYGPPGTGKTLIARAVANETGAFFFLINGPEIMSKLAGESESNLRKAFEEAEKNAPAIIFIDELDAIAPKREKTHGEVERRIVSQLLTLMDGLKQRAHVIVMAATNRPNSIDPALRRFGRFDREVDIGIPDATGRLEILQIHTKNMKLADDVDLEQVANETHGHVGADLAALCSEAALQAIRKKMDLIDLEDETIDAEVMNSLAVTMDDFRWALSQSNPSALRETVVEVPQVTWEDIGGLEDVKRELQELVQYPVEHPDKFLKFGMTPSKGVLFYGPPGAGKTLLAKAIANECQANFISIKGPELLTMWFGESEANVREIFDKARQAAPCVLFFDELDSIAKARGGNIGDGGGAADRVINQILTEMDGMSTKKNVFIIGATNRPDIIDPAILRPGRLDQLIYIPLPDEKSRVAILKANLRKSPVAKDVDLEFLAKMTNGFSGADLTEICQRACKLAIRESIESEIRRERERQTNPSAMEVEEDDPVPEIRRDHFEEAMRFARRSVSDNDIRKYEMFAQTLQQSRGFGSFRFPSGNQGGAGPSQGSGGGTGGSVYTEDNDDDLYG
Luciferin 4-monooxygenase, sequence (P08659 whole entry): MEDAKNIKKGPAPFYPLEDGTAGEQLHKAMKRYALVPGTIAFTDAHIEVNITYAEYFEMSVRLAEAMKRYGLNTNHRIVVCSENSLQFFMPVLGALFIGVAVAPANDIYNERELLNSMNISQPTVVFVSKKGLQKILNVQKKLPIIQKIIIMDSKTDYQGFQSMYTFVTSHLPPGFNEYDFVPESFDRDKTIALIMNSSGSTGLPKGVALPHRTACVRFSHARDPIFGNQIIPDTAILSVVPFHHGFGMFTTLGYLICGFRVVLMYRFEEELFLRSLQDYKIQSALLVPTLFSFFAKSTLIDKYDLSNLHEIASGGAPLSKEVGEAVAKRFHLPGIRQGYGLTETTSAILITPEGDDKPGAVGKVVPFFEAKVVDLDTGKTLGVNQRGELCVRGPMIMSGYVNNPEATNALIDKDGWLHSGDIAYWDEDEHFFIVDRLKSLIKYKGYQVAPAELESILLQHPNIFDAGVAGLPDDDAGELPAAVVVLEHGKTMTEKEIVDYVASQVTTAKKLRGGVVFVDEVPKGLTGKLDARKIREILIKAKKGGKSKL
G2/mitotic-specific cyclin-B1, sequence (P14635 whole entry): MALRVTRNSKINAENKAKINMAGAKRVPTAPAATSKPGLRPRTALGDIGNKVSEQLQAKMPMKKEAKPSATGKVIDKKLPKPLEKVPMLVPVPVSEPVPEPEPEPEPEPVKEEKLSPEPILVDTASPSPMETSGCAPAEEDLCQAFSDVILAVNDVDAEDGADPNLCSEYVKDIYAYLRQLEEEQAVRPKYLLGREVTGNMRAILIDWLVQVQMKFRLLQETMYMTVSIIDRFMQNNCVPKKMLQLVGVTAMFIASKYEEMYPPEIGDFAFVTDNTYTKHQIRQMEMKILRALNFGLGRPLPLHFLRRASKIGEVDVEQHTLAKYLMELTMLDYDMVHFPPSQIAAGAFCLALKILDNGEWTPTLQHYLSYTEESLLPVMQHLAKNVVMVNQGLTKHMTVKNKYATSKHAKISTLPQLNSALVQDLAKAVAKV
Photoreceptor-specific nuclear receptor, sequence (Q9Y5X4 whole entry, the tested form may be a part): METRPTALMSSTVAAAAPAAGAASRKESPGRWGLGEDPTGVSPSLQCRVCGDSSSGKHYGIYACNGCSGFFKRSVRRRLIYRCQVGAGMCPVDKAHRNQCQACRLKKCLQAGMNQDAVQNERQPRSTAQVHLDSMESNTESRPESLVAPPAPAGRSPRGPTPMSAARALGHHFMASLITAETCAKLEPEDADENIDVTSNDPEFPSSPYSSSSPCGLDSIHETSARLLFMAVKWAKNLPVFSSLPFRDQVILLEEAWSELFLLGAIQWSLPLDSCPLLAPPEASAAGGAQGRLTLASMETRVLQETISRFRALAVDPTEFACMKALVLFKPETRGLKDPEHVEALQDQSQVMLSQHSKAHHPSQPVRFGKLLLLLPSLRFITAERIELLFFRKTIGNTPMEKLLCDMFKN

Cc1sc2cc3c(c(C(=O)c4ccccc4)[n+]2c1C)-c1cccc2cccc-3c12
EC50 [1]: 11.5 µM (not active)
AC50 (INS1): 1.91 µM (active)
EC50 [2]: 6.52 µM (active)
AC50 [3]: 1.43 µM (active)
EC50 (cells [4]): > 350 µM (not active)
EC50 (Streptokinase A): 31.9 µM (active)
EC50 (HEK293 [5]): 12.3 µM (not active)
EC50 (cells [6]): > 350 µM (not active)
EC50 (Streptococcus): 23.5 µM (active)
EC50 (BJ): 30.6 µM (active)
EC50 [7]: 8.19 µM (active)

Cc1c(Cl)c(C(=O)NNC(=S)Nc2ccccc2)nn1C
EC50 [8]: 50.5 µM (not active)

COc1cccc(/C=N/NC(=O)c2cc3c(OC)c(OC)ccc3[nH]2)c1OC
EC50 [9]: > 49.7 µM (not active)
EC50 (Wee1-like protein kinase): > 49.7 µM (not active)

Clc1ccc(-n2ncc3c(N4CCCCCC4)ncnc32)cc1
AC50 [10]: > 52 µM (inactive)
EC50 (HEK293 [11]): 2.77 µM (active)
EC50 (HEK293 [12]): > 13.2 µM (inactive)
IC50 [13]: 4.43 µM (active)
EC50 (HEK293 [14]): 3.73 µM (active)
AC50 [15]: < 0.068 µM (active)
AC50 [16]: > 52 µM (inactive)
AC50 [17]: < 0.068 µM (active)
EC50 [18]: > 8 µM (not active)
AC50 [19]: > 52 µM (inactive)

Clc1cccc(CNCCCSc2ncccn2)c1
AC50 [20]: 6.84 µM (active)

O=C(OCC(=O)c1c[nH]c2ccccc12)c1ccc([N+](=O)[O-])s1
EC50 [21]: > 60 µM (not active)
IC50 (cells [22]): 1.62 µM (active)
IC50 [23]: > 50 µM (not active)
AC50 [24]: 3.8 µM (active)
EC50 [25]: 36.4 µM (inactive)
IC50 [26]: > 50 µM (not active)
EC50 [27]: 1.04 µM (active)

CC(C)(C)NC(=O)C(c1ccc(O)cc1)N(C(=O)Cn1nnc(-c2ccc(F)cc2)n1)c1ccccc1F (stereo not given)
IC50 (HEK293 [28]): 16.8 µM (not active)
EC50 [29]: > 35.4 µM (not active)
EC50 [30]: > 35.4 µM (not active)
